Assay results as given in ChEMBL document CHEMBL5537178, “Discovery of TP0628103: A Highly Potent and Selective MMP-7 Inhibitor with Reduced OATP-Mediated Clearance Designed by Shifting Isoelectric Points” (J Med Chem, 2024).
Starred links: 1 amine or outer side, 2 acyl side, 3 side chain; linkers in the order of their positions; H or OH if unused. Non-standard residues stand in square brackets, D forms with d. Residues, ends and D or L forms follow the SMILES beside them. *: point of attachment. Benzenesulfonyl(4-Cl,3-CF3) = O=S(=O)(c1ccc(Cl)c(C(F)(F)F)c1)*; γGlu = O=C(O)[C@H](CCC(=O)[*:2])N[*:1]; 4Pal = N[C@@H](Cc1ccncc1)C(=O)O; Tle = CC(C)(C)[C@H](N)C(=O)O; β3hP = O=C(O)C[C@@H]1CCCN1

Assays:
[1] = Total clearance in CL57BL/6J mouse at 0.25 mg/kg, iv measured upto 24 hrs by LCMS/MS analysis; assay type: ADME, organism-based; settings: in vivo
[2] = Volume of distribution at steady state in CL57BL/6J mouse at 0.25 mg/kg, iv measured upto 24 hrs by LCMS/MS analysis; assay type: ADME, organism-based; settings: in vivo, read-out: Vdss
[3] = Chemical stability of the compound in pH 4 aqueous solution assessed as degradation by measuring residual rate incubated for 24 hrs at 65 degC by HPLC analysis; assay type: physicochemical; settings: read-out: Activity
[4] = Chemical stability of the compound in pH 7.4 aqueous solution assessed as degradation by measuring residual rate incubated for 24 hrs at 65 degC by HPLC analysis; assay type: physicochemical; settings: read-out: Activity
[5] = Lipophilicity, logD of compound at pH 7.4; assay type: physicochemical; settings: buffer
[6] = Urinary excretion rate in rat at 1 mg/kg, iv; assay type: ADME, organism-based; settings: urine, read-out: Activity
[7] = Stability of the compound in rat liver S9 fraction; assay type: ADME, subcellular
[8] = Total clearance in cynomolgus monkey at 0.25 mg/kg, iv; assay type: ADME, organism-based, Macaca fascicularis; settings: in vivo
[9] = Volume of distribution at steady state in cynomolgus monkey at 0.25 mg/kg, iv; assay type: ADME, organism-based, Macaca fascicularis; settings: in vivo, read-out: Vdss
[10] = Total clearance in cynomolgus monkey at 0.25 mg/kg, iv pretreated with rifampicin 20 mg/kg, po 1 hr before; assay type: ADME, organism-based, Macaca fascicularis; settings: in vivo
[11] = Volume of distribution at steady state in cynomolgus monkey at 0.25 mg/kg, iv pretreated with rifampicin 20 mg/kg, po 1 hr before; assay type: ADME, organism-based, Macaca fascicularis; settings: in vivo, read-out: Vdss

Row | Structure (SMILES) | remaining at 24 h [3] | remaining at 24 h [4] | further results
1 | CC(C)(C)[C@H](NC(=O)[C@H](Cc1ccncc1)NC(=O)CNC(=O)CC[C@H](NS(=O)(=O)c1ccc(Cl)c(C(F)(F)F)c1)C(=O)O)C(=O)Nc1ccc(C(=O)O)cc1 | – | – | clearance [1]: 200 mL/min/kg; Vd [2]: 2.48 L/kg
2 | CC(C)c1nc(N(C)S(C)(=O)=O)nc(-c2ccc(F)cc2)c1/C=C/[C@@H](O)C[C@@H](O)CC(=O)O [ROSUVASTATIN] | – | – | logD [5]: -1.9
3 | COc1ccccc1Oc1c(NS(=O)(=O)c2ccc(C(C)(C)C)cc2)nc(-c2ncccn2)nc1OCCO [BOSENTAN] | – | – | logD [5]: 2.4
4 | CN(C)CCCC[C@H](NC(=O)CCN)C(=O)N1CCN(C(=O)c2ccc(NC(=O)[C@@H](NC(=O)[C@H](Cc3ccncc3)NC(=O)CNC(=O)CC[C@H](NS(=O)(=O)c3ccc(Cl)c(C(F)(F)F)c3)C(=O)O)C(C)(C)C)cc2)CC1 | 100% | 93.7% | –
5 | CC(C)(C)[C@H](NC(=O)[C@H](Cc1ccncc1)NC(=O)CNC(=O)CC[C@H](NS(=O)(=O)c1ccc(Cl)c(C(F)(F)F)c1)C(=O)O)C(=O)Nc1ccc(C(=O)N2CCC(C(=O)N[C@H](CCCNC(=N)N)C(=O)NCCN)CC2)cc1 | 98.8% | 88.7% | –
6 | CC(C)(C)[C@H](NC(=O)[C@H](Cc1ccncc1)NC(=O)CNC(=O)CC[C@H](NS(=O)(=O)c1ccc(Cl)c(C(F)(F)F)c1)C(=O)O)C(=O)N1CCC[C@H]1CC(N)=O ({Benzenesulfonyl(4-Cl,3-CF3)-γGlu}-G[4Pal][Tle][β3hP]-NH2) | – | – | dose excreted [6]: 5%; Stability [7]: < 10%; clearance [8]: 24.5 mL/min/kg; Vd [9]: 0.283 L/kg; clearance [10]: 9.12 mL/min/kg; Vd [11]: 0.208 L/kg
7 | CC(C)(C)[C@H](NC(=O)[C@H](Cc1ccncc1)NC(=O)CNC(=O)CC[C@H](NS(=O)(=O)c1ccc(Cl)c(C(F)(F)F)c1)C(=O)O)C(=O)Nc1ccc(C(=O)N2CCC(C(=O)N[C@H](CCCCN)C(=O)N3C[C@@H](N)C[C@H]3C(N)=O)CC2)cc1 | 97% | 96.2% | –

More lines, main results first:

Row | remaining at 24 h [3] | remaining at 24 h [4] | Structure (SMILES) | further results
8 | 95.6% | 86.4% | CC(C)(C)[C@H](NC(=O)[C@H](Cc1ccncc1)NC(=O)CNC(=O)CC[C@H](NS(=O)(=O)c1ccc(Cl)c(C(F)(F)F)c1)C(=O)O)C(=O)Nc1ccc(C(=O)NCC2(N)CCNCC2)cc1 | –
9 | 99.6% | 90.5% | CC(C)(C)[C@H](NC(=O)[C@H](Cc1ccncc1)NC(=O)CNC(=O)CC[C@H](NS(=O)(=O)c1ccc(Cl)c(C(F)(F)F)c1)C(=O)O)C(=O)Nc1ccc(C(=O)N2CCC(C(=O)N[C@H](CCCCN)C(=O)NCCN)CC2)cc1 | –
10 | 88.6% | 58.7% | CC(C)(C)[C@H](NC(=O)[C@H](Cc1ccncc1)NC(=O)CNC(=O)CC[C@H](NS(=O)(=O)c1ccc(Cl)c(C(F)(F)F)c1)C(=O)O)C(=O)Nc1ccc(C(=O)N2CCN(C(=O)[C@@H](N)CCCN)CC2)cc1 | clearance [1]: 41.3 mL/min/kg; Vd [2]: 0.185 L/kg
